In patent US7732637B2, “Acylamide compounds having secretagogue or inducer activity of adiponectin” (Ajinomoto Co., Inc., priority 2005, dated 2010):

These compounds were tested on acyl-CoA oxidase (ACO) gene (assay: ACO mRNA expression level in liver of ob/ob mice). Settings: 500 mg/kg orally once a day; autopsy 38th day; divided by GAPDH mRNA; vs control groups; FIG. 5.
Type: in vivo
Description: (§1) Male ob/ob mice of 5 weeks old (purchased from Charles River Laboratories Japan, Inc.) were preliminarily fed for one week by an experimental diet containing 25% by weight ratio of fats. Then, they were divided into groups so that their body weights and blood glucose were the same between the groups. After the division, N-lauroyl-L-valine (500 mg/kg) was orally administered once a day, and a control group was set, to which vehicle was administered. […] The non-fasting blood glucose was measured on the 6th, 14th and 26th day after starting the administration. The blood glucose was measured by collecting 6 μL of the blood from the caudal vein and using a Fuji DriChem system (produced by FUJIFILM Medical Co., Ltd.). […] Further, on the 27th day after starting the administration, the blood was collected by retroorbital bleeding, and the insulin and triglyceride concentrations in plasma were measured. […] SYBER GREEN Master Mix (ABI) and a primer for amplifying uncoupling protein 2 (UCP2) gene, acyl-CoA oxidase (ACO) gene or glyceraldehyde-3-phosphate dehydrogenase (GAPDH) gene were added to cDNA corresponding to 7.5 ng of total RNA, and the gene expression level was measured with ABI 7700 detector. […]

Structure (SMILES) | ACO mRNA expression level in the liver
CCCCCCCCCCCC(=O)N[C@H](C(=O)O)C(C)C [Example 20, N-lauroyl-L-valine] | significantly increased

These compounds were tested on uncoupling protein 2 (UCP2) gene (assay: UCP2 mRNA expression level in liver of ob/ob mice). Settings: 500 mg/kg orally once a day; autopsy 38th day; divided by GAPDH mRNA; vs control groups; FIG. 4.
Type: in vivo
Description: as §1

Structure (SMILES) | UCP2 mRNA expression level in the liver
CCCCCCCCCCCC(=O)N[C@H](C(=O)O)C(C)C [Example 20, N-lauroyl-L-valine] | significantly increased

What follows are compounds tested on 3T3-L1 cells (assay: Adiponectin output in culture supernatant of differentiated 3T3-L1 cells (LANCE immunoassay)). Settings: adiponectin concentration in culture supernatant, test compound 7 μg/mL, 72 hours; control without compound 24 ng/mL.
Type: cell-based, mouse
Description: 3T3-L1 cells were suspended in Dulbecco's Modified Eagle Medium (GIBCO, 12430-054) containing 10% fetal bovine serum to become 1.5×10^5 cells/mL and seeded. After the incubation in the CO2 incubator at 37° C. for 72 hours, the medium was removed by suction. Then, the medium was exchanged for Dulbecco's Modified Eagle Medium containing 10 μg/mL of insulin, 1 μM of dexamethasone, 0.5 mM of IBMX (3-isobutyl-1-methylxanthine) and 10% fetal bovine serum, and further incubated in the CO2 incubator at 37° C. for 48 hours. The test compound was added to the medium, and then the incubation was continued for 72 hours.
Eu (Europium) chelate labeling of anti-mouse adiponectin antibody (AF1119, by R&D Systems) was conducted by using 100 μg of LANCE Eu-W1024-ITC chelate (AD0013 by Perkin Elmer), which is a Eu chelate labeling reagent, to 200 μg of the antibody in accordance with the method described in the manual of the manufacturer. Biotin labeling of anti-mouse adiponectin antibody (AF1119, by R&D Systems) was conducted by using 26.8 μg of NHS-Biotin (1418165, Biotin Labeling Kit, by Boehringer Mannheim), which is a biotin labeling reagent, to 100 μg of the antibody in accordance with the method described in the manual.
The amount of adiponectin in the cell culture supernatant was measured as follows. The culture supernatant was diluted fivefold with TBS (Tris-buffered saline; 20 mM Tris-HCl pH 7.4, 0.15M NaCl) containing 0.1% bovine serum albumin (BSA), and 10 μL thereof was mixed with 300 ng/mL of the Eu chelate labeled antibody, 300 ng/mL of the biotin labeled antibody, 2.5 μg/mL of Streptavidin-APC (AD0201, by Perkin Elmer) and 10 μL of a TBS solution containing 0.1% BSA on the 384-well plate. After preserving the mixture at room temperature for 2 days, LANCE count was measured by using ARVO-SX multilabel counter (by Perkin Elmer) in accordance with the protocol of the LANCE method. At the same time, the mouse adiponectin preparation (8060-K, by LINCO) was also measured, and the concentration of adiponectin in the culture supernatant was calculated from the calibration curve of the preparation.
Adiponectin outputs were measured by the same method as that of Examples 1 to 31.

Structure (SMILES) | Adiponectin output [ng/mL]
CCCCCCCCCCCC(=O)NC(C)(CC)C(=O)O (racemic) [Example 16] | 78
CCCCCCCCCCCC(=O)NC(C)(C(=O)O)C(C)C (racemic) [Example 18] | 87
CCCCCCCCCCCC(=O)NC(C(N)=O)C(C)C (racemic) [Example 21] | 70
CCCCCCCCCCCCNC(=O)C(NC(=O)CCCCCCCCCCC)C(C)C (racemic) [Example 22] | 64
CCCCCCCCCCCC(=O)N[C@H](C(=O)NC1CCCCC1)C(C)C (racemic) [Example 23, N-lauroyl-L-valine cyclohexylamide] | 65
C=CCCCCCCCCC(=O)N[C@@H](Cc1ccccc1)C(=O)O [Example 8] | 54
CCCCCCCCCCC(=O)N[C@@H](Cc1ccccc1)C(=O)O [Example 12] | 58
CCCCCCCCCCCC(=O)NC(C)(C)C(=O)O [Example 17] | 81
CCCCCCCCCCCC(=O)N[C@@H](CCSC)C(=O)O [Example 19] | 71
CCCCCCCCCCCC(=O)N(CC)[C@H](C(=O)O)C(C)C [Example 24] | 66

Same assay, conditions: adiponectin concentration in culture supernatant, test compound 12.5 μM, 72 hours; control without compound 24 ng/mL

Structure (SMILES) | Adiponectin output [ng/mL]
CCCCCCCCC(=O)N[C@H](C(=O)O)[C@@H](C)CC [Example 2] | 58
CCCCCCCCC(=O)N[C@@H](CC(C)C)C(=O)O [Example 3] | 42
CCCCCCCCC(=O)N[C@H](C(=O)O)C(C)C [Example 4] | 64
CCCCCCCCCC(=O)N[C@H](C(=O)O)[C@@H](C)CC [Example 5] | 74
CCCCCCCCCC(=O)N[C@@H](CC(C)C)C(=O)O [Example 6] | 54
C=CCCCCCCCCC(=O)N[C@@H](CC(C)C)C(=O)O [Example 7] | 61
CCCCCCCCCC(=O)N[C@H](C(=O)O)C(C)C [Example 9] | 81
C=CCCCCCCCCC(=O)N[C@H](C(=O)O)C(C)C [Example 10] | 59
CCCCCCCCCCC(=O)N[C@@H](CC(C)C)C(=O)O [Example 11] | 45
CCCCCCCCCCCC(=O)N[C@H](C(=O)O)[C@@H](C)CC [Example 14] | 84
CCCCCCCCCCCC(=O)N[C@@H](CC(C)C)C(=O)O [Example 15] | 67
CCCCCCCCCCCC(=O)N[C@H](C(=O)O)C(C)C [Example 20, N-lauroyl-L-valine] | 92
CCCCCCCCCCCCCC(=O)N[C@H](C(=O)O)[C@@H](C)CC [Example 25] | 93
CCCCCCCCCCCCCC(=O)N[C@@H](CC(C)C)C(=O)O [Example 26] | 56
CCCCCCCCCCCCCCCC(=O)N[C@@H](CC(C)C)C(=O)O [Example 27] | 57
CCCCCCCCCCCCCCCC(=O)N[C@H](C(=O)O)C(C)C [Example 28] | 31
CCCCCCCCCCCCCCCCCC(=O)N[C@@H](CC(C)C)C(=O)O [Example 29] | 43
CCCCCCCCCCCCCCCCCC(=O)N[C@H](C(=O)O)C(C)C [Example 30] | 43
CCCCCCCCCCCCCCCCCCCCCC(=O)N[C@H](C(=O)O)C(C)C [Example 31] | 42

Same assay, conditions: adiponectin output as ratio to that of Example 20 in Table 1; same method as Examples 1 to 31

Structure (SMILES) | Adiponectin Ratio to Exam. 20 of Table 1 [%]
CCCCCCCCCCCC(=O)NC(C(=O)O)C(C(F)(F)F)C(F)(F)F (racemic) [Example 34] | 25
CCCCCCCCCCCC(=O)NC(Cc1ccccc1C)C(=O)O (racemic) [Example 38] | 31
CCCCCCCCCCCC(=O)NC(C)(Cc1ccccc1)C(=O)O (racemic) [Example 41] | 22
CCCCCCCCCC(=O)N[C@H](C(=O)O)C(C)(C)C [Example 32] | 56
CCCCCCCCCCCC(=O)N[C@H](C(=O)O)C(C)(C)C [Example 33] | 103
CCCCCCCCCCCC(=O)NC(C(=O)O)C(C)CC (centres unmarked) [Example 35] | 83
CCCCCCCCCCCC(=O)N[C@H](C(=O)O)c1ccccc1 [Example 36] | 33
CCCCCCCCCCCC(=O)N[C@@H](Cc1ccc(OC)cc1)C(=O)O [Example 37] | 46
CCCCCCCCCCCC(=O)N[C@H](C(=O)O)C1CCCCC1 [Example 39] | 41
CCCCCCCCCCCC(=O)N[C@H](C(=O)O)C(c1ccccc1)c1ccccc1 [Example 40] | 14
CCCCCCCCCCCC(=O)N[C@@H](Cc1ccc(Cl)cc1)C(=O)O [Example 42] | 44
CCCCCCCCCCCC(=O)N[C@@H](Cc1csc2ccccc12)C(=O)O [Example 43] | 20

Each compound was assayed on ob/ob mice (assay: Oral administration to ob/ob mice on 25% fat diet: blood glucose, glycated hemoglobin, plasma insulin and triglyceride). Settings: 500 mg/kg orally once a day; 6th, 14th and 26th day vs before starting the administration; FIG. 1.
Type: in vivo
Description: Male ob/ob mice of 5 weeks old (purchased from Charles River Laboratories Japan, Inc.) were preliminarily fed for one week by an experimental diet containing 25% by weight ratio of fats. Then, they were divided into groups so that their body weights and blood glucose were the same between the groups. After the division, N-lauroyl-L-valine (500 mg/kg) was orally administered once a day, and a control group was set, to which vehicle was administered. Taking into consideration the possibility that the effect of N-lauroyl-L-valine depends on the diet intake, pair-feeding group was also set as a control group in addition to the vehicle administered group, to which vehicle was daily administered in an average diet intake per a day of the N-lauroyl-L-valine administered group and, therefore, the diet intake thereof is quite the same as that of the N-lauroyl-L-valine administered group during the test period. The non-fasting blood glucose was measured on the 6th, 14th and 26th day after starting the administration. The blood glucose was measured by collecting 6 μL of the blood from the caudal vein and using a Fuji DriChem system (produced by FUJIFILM Medical Co., Ltd.). On the 26th day after starting the administration, the blood was collected by retroorbital bleeding, and 5 μL of its blood was used to conduct the measurement of glycated hemoglobin with the analyzer (HLC-723 GHbV, by Tosoh Technosystem). Further, on the 27th day after starting the administration, the blood was collected by retroorbital bleeding, and the insulin and triglyceride concentrations in plasma were measured. The measurement of the insulin concentration in plasma was conducted by using an insulin measurement kit (by Morinaga Institute of Biological Science, Inc.). The measurement of the triglyceride concentration in plasma was conducted by using a Fuji DriChem system. On the 38th day after staring the administration, autopsy was conducted to collect the liver of the mouse. Then, total RNA was extracted from the frozen liver by using ISOGEN (by Nippon Gene Co., Ltd.), and 0.5 μg of total RNA, oligo (dT) (by Invitrogen) and SuperScript III reverse transcriptase (by Invitrogen) were used to prepare cDNA. SYBER GREEN Master Mix (ABI) and a primer for amplifying uncoupling protein 2 (UCP2) gene, acyl-CoA oxidase (ACO) gene or glyceraldehyde-3-phosphate dehydrogenase (GAPDH) gene were added to cDNA corresponding to 7.5 ng of total RNA, and the gene expression level was measured with ABI 7700 detector. The expression levels of UCP2 and ACO genes were amended by being divided by the expression level of GAPDH mRNA. Two kinds of primers for amplifying UCP2 gene were used wherein the base sequences were ggcctctggaaagggactt and […] from 5′. […]

Structure (SMILES) | non-fasting blood glucose
CCCCCCCCCCCC(=O)N[C@H](C(=O)O)C(C)C [Example 20, N-lauroyl-L-valine] | decreased

Same assay, conditions: 500 mg/kg orally once a day; 26th day; vs vehicle group and pair-feeding group; FIG. 2

Structure (SMILES) | glycated hemoglobin level
CCCCCCCCCCCC(=O)N[C@H](C(=O)O)C(C)C [Example 20, N-lauroyl-L-valine] | significantly lower

Same assay, conditions: 500 mg/kg orally once a day; 27th day vs before; increased in control groups; FIG. 3

Structure (SMILES) | fasting insulin concentration in plasma
CCCCCCCCCCCC(=O)N[C@H](C(=O)O)C(C)C [Example 20, N-lauroyl-L-valine] | such increase was not seen

Same assay, conditions: 500 mg/kg orally once a day; 27th day; vs control groups; FIG. 6

Structure (SMILES) | triglyceride concentration in plasma
CCCCCCCCCCCC(=O)N[C@H](C(=O)O)C(C)C [Example 20, N-lauroyl-L-valine] | tended to be lower
